Assay [1] deals with Rhizopus arrhizus 1. Briefly: Checkerboard MICs of AmB, ISA and PEG15HS in solution. To be noted: Rhizopus arrhizus, 1, RPMI, 24 h at 37° C. It is filed as cell-based. As for the experimental part: (§1) AmB minimum inhibitory concentrations (MIC) of each strain of Mucorales was measured in RPMI in the presence of different concentrations of ISA or PEG15HS as described by the EUCAST broth microdilution antifungal susceptibility test methodology with modification for the checkerboard procedure. Checkerboards were performed by adding 100 μL of two-fold dilutions of AmB (0.008 to 4 mg/L) and ISA (0.008 to 4 mg/L) or PEG15HS (0.04 to 2752 mg/L) in 96 well plates. One hundred microliters of a spore suspension at a concentration of 105 spores/mL were added to the wells, and the plates were incubated for 24 h at 37° C. […] Three experiments were performed for each strain.
(§2) AmB MIC of each strain of Mucorales was measured in RPMI in the presence of different concentrations of ISA and a constant concentration of PEG15HS (100 times the concentration of AmB) as described by the EUCAST broth microdilution antifungal susceptibility test methodology with modification for the checkerboard procedure. Checkerboards were performed by adding 100 μL of two-fold dilutions of AmB (0.008 to 4 mg/L)+PEG15HS (0.8 to 400 mg/L) and ISA (0.008 to 4 mg/L) in 96 well plates. One hundred microliters of a spore suspension at a concentration of 105 spores/mL were added to the wells, and the plates were incubated for 24 h at 37° C. […] Three experiments were performed for each strain. […]

The subject of assay [2] is L. corymbifera. The assay is described as above. It is filed as cell-based, Lichtheimia corymbifera. To be noted: Lichtheimia corymbifera, RPMI, 24 h at 37° C. As for the experimental part: as §1, §2
For assay [3], the system named is L. ramosa. The description is as above. It is filed as cell-based, Lichtheimia ramosa. The settings on record: Lichtheimia ramosa, RPMI, 24 h at 37° C. How it is done:
as §1, §2

Assay [4] deals with Lichtheimia corymbifera. Briefly: EUCAST MICs of AmB, ISA, AmB-loaded LNPs and AmB-ISA-loaded LNPs. The settings on record: Lichtheimia corymbifera; 24 h at 37° C. It is filed as cell-based. How it is done:
(§3) Briefly, a mass (80-120 mg) of an oil phase consisting of triglycerides (Labrafac®, or tributyrin in different mass ratios, i.e. 100% Labrafac® to 100% tributyrin) was supplemented with AmB (0,025 to 0.2 mg) and ISA (0.25 to 5 mg) and then mixed with 80 to 120 mg of PEG15HS (Solutol HS15®) and 500 to 800 μl of water to form an oil-in-water emulsion. This emulsion was then heated to 85° C., to obtain a water-in-oil emulsion, and then cooled to 40° C. Three such temperature cycles were performed and the system was then fast cooled to 4° C. The formulated nanoparticles were then characterized by size distribution and mean zeta potential measurements. Examples of formulations of LNPs loaded with AmB and AmB-ISA are detailed in Table 5:
(§4) Rhizopus arrhizus 1, Lichtheimia corymbifera and Lichtheimia ramosa strains were used. These correspond to the most frequently encountered species in human mucormycosis. These three strains were isolated from patients suffering from pulmonary mucormycosis.
(§5) MICs of AmB in solution, ISA in solution, AmB-loaded LNPs, and AmB-ISA-loaded LNPs were evaluated according to the European Committee on Antimicrobial Susceptibility Testing (EUCAST) guidelines. Briefly, MICs were determined by adding 100 μL of two-fold dilutions of AmB in solution, ISA in solution, AmB-LNPs or AmB-ISA-LNPs (0.008 to 4 mg/L) in 96-well plates. One hundred microliters of a spore suspension at a concentration of 105 spores/mL were added to the wells, and the plates were incubated for 24 h (Mucorales) or 48 h (A. fumigatus) at 37° C. […] Three experiments were performed for each strain.

Assay [5] relates to Lichtheimia ramosa. The assay is described as above. It is filed as cell-based. To be noted: Lichtheimia ramosa; 24 h at 37° C. How it is done:
as §3, §4, §5

For assay [6], the system named is Rhizopus arrhizus 1. Described as above. It counts as cell-based. The settings on record: Rhizopus arrhizus, 1; 24 h at 37° C. As for the experimental part:
as §3, §4, §5

Assay [7] has as its system Aspergillus fumigatus. The description is as above. It counts as cell-based. The settings on record: 48 h at 37° C. As for the experimental part:
as §3
Two reference strains (ATCC 16424 and ATCC 204305) and a clinical azole-resistant strain (AfR2) of Aspergillus fumigatus were used.
as §5

The record followed here is US20250221930A1, “A COMPOSITION COMPRISING LIPID NANOPARTICLES AND AN ANTIFUNGAL POLYENE” (INSTITUT NATIONAL DE LA SANTÉ ET DE LA RECHERCHE MÉDICALE, priority 2022, published 2025).

≈ marks a conversion by molar mass, not a printed value. A value given as a limit tells only on which side of the number the result lay.

One may read the MIC as the lowest concentration that inhibits growth of the organism. With `C[C@@H](c1nc(-c2ccc(C#N)cc2)cs1)[C@](O)(Cn1cncn1)c1cc(F)ccc1F` [ISA, isavuconazole], the MIC stood at 1 µg/mL in assay [1]; 4 µg/mL in assay [2]; 4 µg/mL in assay [3]; 4 µg/mL (≈ 9.14 µM) in assay [4]; 4 µg/mL (≈ 9.14 µM) in assay [5]; 1 µg/mL (≈ 2.29 µM) in assay [6]. Moreover, the MIC in assay [7] (ATCC16424, Aspergillus fumigatus 16 (ATCC 16424)) is 0.5 µg/mL (≈ 1.14 µM); in assay [7] (Aspergillus fumigatus, ATCC204305, A. fumigatus 20 (ATCC 204305)), 0.5 µg/mL (≈ 1.14 µM); in assay [7] (Aspergillus fumigatus, A. fumigatus R2 (clinical azole-resistant strain AfR2)) it was above 4 µg/mL.
